Measured values from patent US20230074545A1, “TREATMENT OF CANCER WITH CDK12/13 INHIBITORS” (Kinnate Biopharma Inc., priority 2019, published 2023).

Legend:
Assay in all cases: Radiometric kinase panel
Assay type in all cases: biochemical
MASTL = biological target: T1, MASTL (Homo sapiens, UniProt Q96GX5)
T1 construct: either as full-length or enzymatically active fragments; purchased ProQinase GmbH (Reaction Biology); host or cells: Sf9 insect cells or E. coli (not specified per kinase)
In short: (§1)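 Activity was measured radiometrically from [gamma-33P]-ATP incorporation into substrate. The kinases were recombinant human GST- or His-tagged proteins, full-length or active fragments, expressed in Sf9 or E. coli. Compound in 10% DMSO was added before the enzyme/substrate mix, which started the reaction.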

CDK1/CycB1 = biological target: T2, CDK1/CycB1 (Homo sapiens, UniProt P06493)
T2 construct: either as full-length or enzymatically active fragments; purchased ProQinase GmbH (Reaction Biology); host or cells: Sf9 insect cells or E. coli
In short: as §1

MST3 = biological target: T3, MST3 (Homo sapiens, UniProt Q9Y6E0)
T3 construct: either as full-length or enzymatically active fragments; purchased ProQinase GmbH (Reaction Biology)
In short: as §1

JNK1 = biological target: T4, JNK1 (Homo sapiens, UniProt P45983)
T4 construct: either as full-length or enzymatically active fragments; purchased ProQinase GmbH (Reaction Biology)
In short: as §1

CDK6/CycD3 = biological target: T5, CDK6/CycD3 (Homo sapiens, UniProt Q00534)
T5 construct: either as full-length or enzymatically active fragments; purchased ProQinase GmbH (Reaction Biology); host or cells: Sf9 insect cells or E. coli
In short: as §1

PBK = biological target: T6, PBK (Homo sapiens, UniProt Q96KB5)
T6 construct: purchased ProQinase GmbH (Reaction Biology); host or cells: Sf9 insect cells or E. coli (not specified per kinase)
In short: as §1

PRKX = biological target: T7, PRKX (Homo sapiens, UniProt P51817)
T7 construct: either as full-length or enzymatically active fragments; purchased ProQinase GmbH (Reaction Biology)
T7 sequence (P51817 whole entry, the tested form may be a part): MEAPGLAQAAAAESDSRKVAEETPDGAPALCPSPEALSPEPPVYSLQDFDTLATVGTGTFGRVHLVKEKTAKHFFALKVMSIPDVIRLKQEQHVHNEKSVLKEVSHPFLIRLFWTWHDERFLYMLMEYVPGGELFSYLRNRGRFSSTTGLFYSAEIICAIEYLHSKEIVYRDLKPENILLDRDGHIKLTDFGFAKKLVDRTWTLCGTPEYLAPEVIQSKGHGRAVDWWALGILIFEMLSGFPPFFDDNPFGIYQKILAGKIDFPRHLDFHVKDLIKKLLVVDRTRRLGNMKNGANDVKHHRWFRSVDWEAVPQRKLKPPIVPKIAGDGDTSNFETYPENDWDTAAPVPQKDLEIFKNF
In short: as §1

LTK = biological target: T8, LTK (Homo sapiens, UniProt P29376)
T8 construct: purchased ProQinase GmbH (Reaction Biology); host or cells: Sf9 insect cells or E. coli (not specified per kinase)
T8 sequence (P29376 17-864): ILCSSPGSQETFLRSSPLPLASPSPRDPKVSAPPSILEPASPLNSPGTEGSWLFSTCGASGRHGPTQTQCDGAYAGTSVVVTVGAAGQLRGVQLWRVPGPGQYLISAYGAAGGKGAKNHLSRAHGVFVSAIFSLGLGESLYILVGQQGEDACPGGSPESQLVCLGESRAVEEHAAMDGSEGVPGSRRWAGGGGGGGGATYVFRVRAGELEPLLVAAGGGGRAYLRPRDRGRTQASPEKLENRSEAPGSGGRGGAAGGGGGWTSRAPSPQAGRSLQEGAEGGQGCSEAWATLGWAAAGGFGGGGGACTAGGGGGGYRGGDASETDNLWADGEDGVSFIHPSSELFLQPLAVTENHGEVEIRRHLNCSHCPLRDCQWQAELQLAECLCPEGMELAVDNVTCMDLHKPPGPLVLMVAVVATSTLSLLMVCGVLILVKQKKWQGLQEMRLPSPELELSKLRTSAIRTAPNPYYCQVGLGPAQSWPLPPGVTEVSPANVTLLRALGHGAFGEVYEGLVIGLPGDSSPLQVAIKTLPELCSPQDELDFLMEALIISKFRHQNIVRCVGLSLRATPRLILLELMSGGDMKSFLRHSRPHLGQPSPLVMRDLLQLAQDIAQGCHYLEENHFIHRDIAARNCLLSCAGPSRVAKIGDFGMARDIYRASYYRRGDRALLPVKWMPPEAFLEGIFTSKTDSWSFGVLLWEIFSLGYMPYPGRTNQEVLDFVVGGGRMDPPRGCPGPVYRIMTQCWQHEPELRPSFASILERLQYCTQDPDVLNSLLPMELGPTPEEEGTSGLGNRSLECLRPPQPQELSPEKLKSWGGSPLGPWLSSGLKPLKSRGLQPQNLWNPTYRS
In short: as §1

PYK2 = biological target: T9, PYK2 (Homo sapiens, UniProt Q14289)
T9 construct: either as full-length or enzymatically active fragments; purchased ProQinase GmbH (Reaction Biology)
In short: as §1

TEC = biological target: T10, TEC (Homo sapiens, UniProt P42680)
T10 construct: either as full-length or enzymatically active fragments; purchased ProQinase GmbH (Reaction Biology)
T10 sequence (P42680 whole entry, the tested form may be a part): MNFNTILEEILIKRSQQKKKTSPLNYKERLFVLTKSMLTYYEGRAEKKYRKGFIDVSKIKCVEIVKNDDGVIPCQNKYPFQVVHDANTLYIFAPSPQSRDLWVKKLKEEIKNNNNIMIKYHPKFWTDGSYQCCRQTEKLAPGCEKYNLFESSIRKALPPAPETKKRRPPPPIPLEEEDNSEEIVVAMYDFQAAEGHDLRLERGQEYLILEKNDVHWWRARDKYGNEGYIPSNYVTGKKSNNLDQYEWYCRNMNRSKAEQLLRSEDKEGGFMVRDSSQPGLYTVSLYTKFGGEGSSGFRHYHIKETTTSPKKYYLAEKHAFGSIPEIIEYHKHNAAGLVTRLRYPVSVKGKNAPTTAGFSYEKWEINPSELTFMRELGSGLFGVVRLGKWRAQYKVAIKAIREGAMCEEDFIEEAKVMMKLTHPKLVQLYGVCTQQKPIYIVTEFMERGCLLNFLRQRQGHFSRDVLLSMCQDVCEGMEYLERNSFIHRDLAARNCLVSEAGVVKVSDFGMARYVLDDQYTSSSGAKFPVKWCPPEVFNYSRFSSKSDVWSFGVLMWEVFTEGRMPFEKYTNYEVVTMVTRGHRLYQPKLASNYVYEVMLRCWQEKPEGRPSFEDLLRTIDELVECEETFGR
In short: as §1

SGK3 = biological target: T11, SGK3 (Homo sapiens, UniProt Q96BR1)
T11 construct: either as full-length or enzymatically active fragments; purchased ProQinase GmbH (Reaction Biology)
In short: as §1

TNK1 = biological target: T12, TNK1 (Homo sapiens, UniProt Q13470)
T12 construct: either as full-length or enzymatically active fragments; purchased ProQinase GmbH (Reaction Biology)
In short: as §1

NEK9 = biological target: T13, NEK9 (Homo sapiens, UniProt Q8TD19)
T13 construct: either as full-length or enzymatically active fragments; purchased ProQinase GmbH (Reaction Biology)
In short: as §1

MAP3K7/MAP3K7IP1 = biological target: T14, MAP3K7/MAP3K7IP1 (Homo sapiens, UniProt O43318)
T14 construct: either as full-length or enzymatically active fragments; purchased ProQinase GmbH (Reaction Biology)
In short: as §1

CDK8/CycC = biological target: T15, CDK8/CycC (Homo sapiens, UniProt P49336)
T15 construct: either as full-length or enzymatically active fragments; purchased ProQinase GmbH (Reaction Biology)
In short: as §1

CHK1 = biological target: T16, CHK1 (Homo sapiens, UniProt O14757)
T16 construct: either as full-length or enzymatically active fragments; purchased ProQinase GmbH (Reaction Biology)
T16 sequence (O14757 whole entry, the tested form may be a part): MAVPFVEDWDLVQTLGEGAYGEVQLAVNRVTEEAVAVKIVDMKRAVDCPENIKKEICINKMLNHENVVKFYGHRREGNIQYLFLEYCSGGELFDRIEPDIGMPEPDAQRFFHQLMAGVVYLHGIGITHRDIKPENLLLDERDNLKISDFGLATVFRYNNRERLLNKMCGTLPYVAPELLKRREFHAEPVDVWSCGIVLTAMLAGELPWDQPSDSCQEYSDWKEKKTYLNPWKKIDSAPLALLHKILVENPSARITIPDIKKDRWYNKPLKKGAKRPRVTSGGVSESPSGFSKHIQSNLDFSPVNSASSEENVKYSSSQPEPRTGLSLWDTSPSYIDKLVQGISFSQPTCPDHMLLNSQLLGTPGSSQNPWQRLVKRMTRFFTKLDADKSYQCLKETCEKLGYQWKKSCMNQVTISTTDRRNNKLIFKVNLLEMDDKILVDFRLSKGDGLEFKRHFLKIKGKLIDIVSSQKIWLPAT
In short: as §1

CDK1/CycE1 = biological target: T17, CDK1/CycE1 (Homo sapiens, UniProt P06493)
T17 construct: either as full-length or enzymatically active fragments; purchased ProQinase GmbH (Reaction Biology); host or cells: Sf9 insect cells or E. coli
In short: as §1

CDK2/CycA2 = biological target: T18, CDK2/CycA2 (Homo sapiens, UniProt P24941)
T18 construct: either as full-length or enzymatically active fragments; purchased ProQinase GmbH (Reaction Biology); host or cells: Sf9 insect cells or E. coli
In short: as §1

DDR2 = biological target: T19, DDR2 (Homo sapiens, UniProt Q16832)
T19 construct: either as full-length or enzymatically active fragments; purchased ProQinase GmbH (Reaction Biology)
In short: as §1

SGK1 = biological target: T20, SGK1 (Homo sapiens, UniProt O00141)
T20 construct: purchased ProQinase GmbH (Reaction Biology)
In short: as §1

TRKB = biological target: T21, TRKB (Homo sapiens, UniProt Q16620)
T21 construct: purchased ProQinase GmbH (Reaction Biology)
In short: as §1

CHK2 = biological target: T22, CHK2 (Homo sapiens, UniProt O96017)
T22 construct: either as full-length or enzymatically active fragments; purchased ProQinase GmbH (Reaction Biology)
T22 sequence (O96017 whole entry, the tested form may be a part): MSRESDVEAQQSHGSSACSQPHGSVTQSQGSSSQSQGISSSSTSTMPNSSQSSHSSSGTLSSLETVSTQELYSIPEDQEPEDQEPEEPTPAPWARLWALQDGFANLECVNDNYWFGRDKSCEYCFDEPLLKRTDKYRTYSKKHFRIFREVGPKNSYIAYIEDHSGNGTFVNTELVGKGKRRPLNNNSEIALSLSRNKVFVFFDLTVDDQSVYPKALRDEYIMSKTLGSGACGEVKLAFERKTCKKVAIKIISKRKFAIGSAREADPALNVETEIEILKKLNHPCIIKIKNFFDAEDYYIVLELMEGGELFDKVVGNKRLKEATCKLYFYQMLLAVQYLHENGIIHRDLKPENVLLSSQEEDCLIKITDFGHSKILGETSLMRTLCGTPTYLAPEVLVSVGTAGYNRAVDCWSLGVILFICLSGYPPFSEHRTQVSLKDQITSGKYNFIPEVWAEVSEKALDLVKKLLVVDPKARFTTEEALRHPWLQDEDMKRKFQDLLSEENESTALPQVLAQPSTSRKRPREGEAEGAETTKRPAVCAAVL
In short: as §1

CDC42BPA = biological target: T23, CDC42BPA (Homo sapiens, UniProt Q5VT25)
T23 construct: either as full-length or enzymatically active fragments; purchased ProQinase GmbH (Reaction Biology); host or cells: Sf9 insect cells or E. coli
In short: as §1

WEE1 = biological target: T24, WEE1 (Homo sapiens, UniProt P30291)
T24 construct: either as full-length or enzymatically active fragments; purchased ProQinase GmbH (Reaction Biology)
In short: as §1

PAK4 = biological target: T25, PAK4 (Homo sapiens, UniProt O96013)
T25 construct: either as full-length or enzymatically active fragments; purchased ProQinase GmbH (Reaction Biology)
T25 sequence (O96013 whole entry, the tested form may be a part): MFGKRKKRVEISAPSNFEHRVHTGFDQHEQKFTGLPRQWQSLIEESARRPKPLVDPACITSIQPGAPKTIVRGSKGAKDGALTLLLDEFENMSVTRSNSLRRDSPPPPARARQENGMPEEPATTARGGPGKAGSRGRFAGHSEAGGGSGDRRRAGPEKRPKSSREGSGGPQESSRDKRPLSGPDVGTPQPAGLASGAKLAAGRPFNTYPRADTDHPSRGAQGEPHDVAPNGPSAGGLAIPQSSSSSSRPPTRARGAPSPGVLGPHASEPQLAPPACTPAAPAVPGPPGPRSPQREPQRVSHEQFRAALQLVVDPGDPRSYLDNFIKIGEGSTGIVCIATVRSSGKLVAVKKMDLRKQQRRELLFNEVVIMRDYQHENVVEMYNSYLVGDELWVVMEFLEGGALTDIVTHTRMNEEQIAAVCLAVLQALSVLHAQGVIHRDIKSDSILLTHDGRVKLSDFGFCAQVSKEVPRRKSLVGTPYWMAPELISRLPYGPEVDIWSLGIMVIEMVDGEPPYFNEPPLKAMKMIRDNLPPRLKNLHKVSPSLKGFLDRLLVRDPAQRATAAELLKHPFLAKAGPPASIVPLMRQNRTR
In short: as §1

EPHA5 = biological target: T26, EPHA5 (Homo sapiens, UniProt P54756)
T26 construct: either as full-length or enzymatically active fragments; purchased ProQinase GmbH (Reaction Biology)
T26 sequence (P54756 25-1037): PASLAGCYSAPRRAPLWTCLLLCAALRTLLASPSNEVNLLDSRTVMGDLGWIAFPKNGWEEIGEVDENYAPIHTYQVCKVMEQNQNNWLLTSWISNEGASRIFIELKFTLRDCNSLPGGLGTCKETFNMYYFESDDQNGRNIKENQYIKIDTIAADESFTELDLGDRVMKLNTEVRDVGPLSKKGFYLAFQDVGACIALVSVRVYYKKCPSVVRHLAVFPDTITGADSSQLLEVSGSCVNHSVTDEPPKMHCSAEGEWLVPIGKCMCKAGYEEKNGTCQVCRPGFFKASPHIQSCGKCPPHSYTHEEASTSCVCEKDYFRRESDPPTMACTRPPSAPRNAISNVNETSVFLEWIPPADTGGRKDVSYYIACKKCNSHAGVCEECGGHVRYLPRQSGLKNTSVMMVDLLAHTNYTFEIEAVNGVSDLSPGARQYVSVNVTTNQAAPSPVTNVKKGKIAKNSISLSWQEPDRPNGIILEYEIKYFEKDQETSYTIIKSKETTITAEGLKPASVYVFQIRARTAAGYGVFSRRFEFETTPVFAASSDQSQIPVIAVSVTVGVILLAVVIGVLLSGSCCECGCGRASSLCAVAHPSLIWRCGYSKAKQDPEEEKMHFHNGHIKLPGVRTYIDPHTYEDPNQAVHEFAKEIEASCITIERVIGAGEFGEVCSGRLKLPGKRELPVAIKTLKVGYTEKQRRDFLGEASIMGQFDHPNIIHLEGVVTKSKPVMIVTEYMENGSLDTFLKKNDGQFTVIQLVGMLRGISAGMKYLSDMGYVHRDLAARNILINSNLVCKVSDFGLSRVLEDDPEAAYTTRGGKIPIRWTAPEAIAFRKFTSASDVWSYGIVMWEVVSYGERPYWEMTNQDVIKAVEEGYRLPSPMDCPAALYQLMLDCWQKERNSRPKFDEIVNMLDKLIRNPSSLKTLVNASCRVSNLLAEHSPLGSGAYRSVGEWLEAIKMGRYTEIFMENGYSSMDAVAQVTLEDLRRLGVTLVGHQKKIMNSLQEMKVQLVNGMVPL
In short: as §1

MAP3K9 = biological target: T27, MAP3K9 (Homo sapiens, UniProt P80192)
T27 construct: either as full-length or enzymatically active fragments; purchased ProQinase GmbH (Reaction Biology)
In short: as §1

PKCalpha = biological target: T28, PKCalpha (Homo sapiens, UniProt P17252)
T28 construct: either as full-length or enzymatically active fragments; purchased ProQinase GmbH (Reaction Biology)
In short: as §1

SRMS = biological target: T29, SRMS (Homo sapiens, UniProt Q9H3Y6)
T29 construct: purchased ProQinase GmbH (Reaction Biology)
In short: as §1

BMPR1A = biological target: T30, BMPR1A (Homo sapiens, UniProt P36894)
T30 construct: either as full-length or enzymatically active fragments; purchased ProQinase GmbH (Reaction Biology)
T30 sequence (P36894 24-532): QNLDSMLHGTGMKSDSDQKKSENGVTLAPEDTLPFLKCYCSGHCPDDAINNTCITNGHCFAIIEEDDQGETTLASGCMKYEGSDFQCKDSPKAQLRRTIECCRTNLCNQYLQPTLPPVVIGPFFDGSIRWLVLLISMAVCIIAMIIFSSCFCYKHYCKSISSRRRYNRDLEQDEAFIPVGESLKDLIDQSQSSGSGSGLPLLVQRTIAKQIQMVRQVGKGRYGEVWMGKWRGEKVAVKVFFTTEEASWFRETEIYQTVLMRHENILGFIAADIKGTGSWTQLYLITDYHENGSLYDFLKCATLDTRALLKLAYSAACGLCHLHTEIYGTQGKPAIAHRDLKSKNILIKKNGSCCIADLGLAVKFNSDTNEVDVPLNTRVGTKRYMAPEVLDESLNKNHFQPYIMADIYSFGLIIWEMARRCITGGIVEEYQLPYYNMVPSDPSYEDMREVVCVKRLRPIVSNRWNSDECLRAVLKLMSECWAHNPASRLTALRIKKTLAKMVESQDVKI
In short: as §1

`C=CC(=O)Nc1ccc(C(=O)N2CC[C@@H](Nc3ncc(C#N)cn3)C2)cc1` [Compound 4, (R)-N-(4-(3-((5-cyanopyrimidin-2-yl)amino)pyrrolidine-1-carbonyl)phenyl)acrylamide] showed an inhibition at 1 µM (MASTL) of 11%, an inhibition at 1 µM (CDK1/CycB1) of 13% and an inhibition at 1 µM (MST3) of 3%. The inhibition at 1 µM (JNK1) was 3%, the inhibition at 1 µM (CDK6/CycD3) was 14% and the inhibition at 1 µM (PBK) was 0%. For the same molecule, the inhibition at 1 µM (PRKX) was -7%, the inhibition at 1 µM (LTK) was 1% and the inhibition at 1 µM (PYK2) was 4%. It also gave an inhibition at 1 µM (TEC) of 5%, an inhibition at 1 µM (SGK3) of 5% and an inhibition at 1 µM (TNK1) of 2%. For the same molecule, the inhibition at 1 µM (NEK9) was -5%, the inhibition at 1 µM (MAP3K7/MAP3K7IP1) was 2% and the inhibition at 1 µM (CDK8/CycC) was 3%. It also gave an inhibition at 1 µM (CHK1) of 3%, an inhibition at 1 µM (CDK1/CycE1) of 11% and an inhibition at 1 µM (CDK2/CycA2) of 15%. The inhibition at 1 µM (DDR2) was -9%, the inhibition at 1 µM (SGK1) was -2% and the inhibition at 1 µM (TRKB) was -1%. It also gave an inhibition at 1 µM (CHK2) of 5%, an inhibition at 1 µM (CDC42BPA) of -16% and an inhibition at 1 µM (WEE1) of -5%. The inhibition at 1 µM (PAK4) was -3%, the inhibition at 1 µM (EPHA5) was -8% and the inhibition at 1 µM (MAP3K9) was -4%. The inhibition at 1 µM (PKCalpha) was -5%, the inhibition at 1 µM (SRMS) was -2% and the inhibition at 1 µM (BMPR1A) was 2%.
